# Assay results: PubChem BioAssay (NCI)
#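 Abbreviation: GI50, concentration required for 50% inhibition of growth. TGI marks complete inhibition of growth.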
# What was measured:
# Assay in all cases: inhibition of tumour cell growth, NCI panel, 384-well format
# [1] = system: HCT-15 colon
# [2] = system: U251 glioblastoma
# [3] = system: HS 578T breast
# [4] = system: SK-MEL-2 melanoma
# [5] = system: K-562 leukemia
# [6] = system: BT-549 breast
# [7] = system: OVCAR-3 ovarian
# [8] = system: HCC-2998 colon
# [9] = system: EKVX NSCLC
# [10] = system: SF-268 CNS
# [11] = system: NCI/ADR-RES ovarian
# [12] = system: SNB-19 CNS
# [13] = system: A498 renal
# [14] = system: SN12C renal
# [15] = system: SF-539 CNS
# [16] = system: HOP-62 NSCLC
# [17] = system: COLO 205 colon
# [18] = system: NCI-H23 lung
# [19] = system: OVCAR-4 ovarian
# [20] = system: HOP-92 NSCLC
# [21] = system: A549 NSCLC
# [22] = system: RPMI-8226 leukemia
# [23] = system: SK-OV-3 ovarian
# [24] = system: SR leukemia
# [25] = system: CCRF-CEM leukemia
# [26] = system: PC-3 prostate
# [27] = system: NCI-H460 NSCLC
# [28] = system: MOLT-4 leukemia
# [29] = system: HCT-116 colon
# [30] = system: IGROV1 ovarian
# [31] = system: MDA-MB-468 breast
# [32] = system: HL-60(TB) leukemia
# [33] = system: OVCAR-5 ovarian
# [34] = system: MALME-3M melanoma
# [35] = system: NCI-H522 lung
# [36] = system: MDA-MB-435 melanoma
# [37] = system: M14 melanoma
# [38] = system: MDA-MB-231 breast
# [39] = system: KM12 colon
# [40] = system: LOX IMVI melanoma
# [41] = system: SK-MEL-5 melanoma
# [42] = system: UACC-62 melanoma
# [43] = system: 786-0 renal
# [44] = system: TK-10 renal
# [45] = system: SW-620 colon
# [46] = system: CAKI-1 renal
# [47] = system: SK-MEL-28 melanoma
# [48] = system: DU-145 prostate
# [49] = system: HT29 colon
smiles,measurement,setting,value
COc1cnccc1Nc1nc(-c2nn(Cc3c(F)cc(OCCO)cc3F)c3ccccc23)ncc1OC,GI50,[1],1.2 µM
same,TGI,[1],2.51 µM
same,GI50,[2],1.44 µM
same,TGI,[2],2.78 µM
same,GI50,[3],1.75 µM
same,TGI,[3],3.89 µM
same,GI50,[4],1.54 µM
same,TGI,[4],2.88 µM
same,GI50,[5],1.21 µM
same,TGI,[5],2.56 µM
same,GI50,[6],1.44 µM
same,TGI,[6],2.8 µM
same,GI50,[7],1.61 µM
same,TGI,[7],3.1 µM
same,GI50,[8],1.76 µM
same,TGI,[8],4.47 µM
same,GI50,[9],1.54 µM
same,TGI,[9],3.16 µM
same,GI50,[10],0.845 µM
same,TGI,[10],2.72 µM
same,GI50,[11],1.87 µM
same,TGI,[11],3.9 µM
same,GI50,[12],1.6 µM
same,TGI,[12],3.08 µM
same,GI50,[13],1.19 µM
same,TGI,[13],2.43 µM
same,GI50,[14],1.31 µM
same,TGI,[14],2.65 µM
same,GI50,[15],1.45 µM
same,TGI,[15],2.76 µM
same,GI50,[16],0.783 µM
same,TGI,[16],2.06 µM
same,GI50,[17],2.27 µM
same,TGI,[17],> 33.3 µM
same,GI50,[18],1.63 µM
same,TGI,[18],3.15 µM
same,GI50,[19],1.64 µM
same,TGI,[19],3.03 µM
same,GI50,[20],0.902 µM
same,TGI,[20],2.19 µM
same,GI50,[21],1.54 µM
same,TGI,[21],2.92 µM
same,GI50,[22],0.841 µM
same,TGI,[22],2.09 µM
same,GI50,[23],1.75 µM
same,TGI,[23],3.93 µM
same,GI50,[24],0.261 µM
same,TGI,[24],1.25 µM
same,GI50,[25],0.395 µM
same,TGI,[25],1.74 µM
same,GI50,[26],1.87 µM
same,TGI,[26],3.36 µM
same,GI50,[27],1.06 µM
same,TGI,[27],2.28 µM
same,GI50,[28],0.126 µM
same,TGI,[28],0.548 µM
same,GI50,[29],1.62 µM
same,TGI,[29],3.6 µM
same,GI50,[30],1.94 µM
same,TGI,[30],4.47 µM
same,GI50,[31],0.927 µM
same,TGI,[31],2.13 µM
same,GI50,[32],0.838 µM
same,TGI,[32],2.16 µM
same,GI50,[33],2.86 µM
same,TGI,[33],7.17 µM
same,GI50,[34],1.77 µM
same,TGI,[34],3.2 µM
same,GI50,[35],0.768 µM
same,TGI,[35],2.03 µM
same,GI50,[36],1.73 µM
same,TGI,[36],3.36 µM
same,GI50,[37],1.4 µM
same,TGI,[37],2.86 µM
same,GI50,[38],1.41 µM
same,TGI,[38],3.22 µM
same,GI50,[39],1.27 µM
same,TGI,[39],3.13 µM
same,GI50,[40],1.25 µM
same,TGI,[40],2.72 µM
same,GI50,[41],1.51 µM
same,TGI,[41],2.85 µM
same,GI50,[42],1.5 µM
same,TGI,[42],2.86 µM
same,GI50,[43],1.53 µM
same,TGI,[43],2.89 µM
same,GI50,[44],2.04 µM
same,TGI,[44],4.14 µM
same,GI50,[45],1.47 µM
same,TGI,[45],2.84 µM
same,GI50,[46],1.9 µM
same,TGI,[46],8.3 µM
same,GI50,[47],1.72 µM
same,TGI,[47],3.12 µM
same,GI50,[48],1.73 µM
same,TGI,[48],3.44 µM
same,GI50,[49],1.85 µM
same,TGI,[49],5.48 µM
